The values below come from US20250109118A1, “HETEROCYCLIC COMPOUNDS AS SHP2 INHIBITORS, COMPOSITIONS COMPRISING THE HETEROCYCLIC COMPOUND, AND METHODS OF USE THEREOF” (JS INNOMED HOLDINGS LTD., priority 2021, published 2025).

pIC50: −log10 of the molar value.

The subject of this assay is MiaPaCa-2 cells. Kind of assay: MiaPaCa-2 Cell proliferation assay in 3D culture (CCK8). In kind it is cell-based. The conditions noted are these: Homo sapiens, MIA PaCa-2, 120 h; 3D spheroid culture, 5 days with compound, CCK8 readout. The protocol: MiaPaCa-2 Cell proliferation assay in 3D culture. To evaluate cell viability, MiaPaCa-2 cells in logarithmic growth phase were seeded at optimal density and grown in as spheroids. Cells were incubated for 24 hours prior to the addition of different concentrations of the compounds. Cells were cultured with the compounds for 5 days and the cell viability was assessed using CCK8. Briefly, 2500 cells were seeded in round bottom ultra-low attachment 96 well plates (coming) in growth media supplemented with 10% FBS and incubated at 37° C. for 24 hours. The compounds were dissolved in DMSO (Sigma) to obtain 10 mM stock solution. Then the compounds were serially diluted in 3-fold to ten concentrations; 5 μL of the dilution above was transferred to 95 uL culture media to obtain the 50× compound stock solution; 4 uL of the 50× compound above was then transferred to the wells containing cells with 196 μL of the culture medium to obtain the final 1× concentration. The final concentration of DMSO was 0.1%. Spheroid cells were incubated in compounds for 5 days. Then 20 μL WST-8 solution (DOJINDO, Cell Counting KIT-8) was added to each well. The plates were further incubated at 37° C. for 1.5 hours, and then absorbance at 450 nm was measured using a microplate reader. Each compound was tested in triplicate and the IC50 value was calculated using GraphPad Prism.
The IC50 values of for Compounds disclosed are listed in Table 2, A: ≤500 nM; B: >500 nM and ≤5 μM; C: >5 μM and ≤50 μM; and D: >50 μM.
Take `COc1ccc(S(=O)(=O)NC(=O)Nc2nccc(Sc3cnc(N4CCC5(CC4)CO[C@@H](C)[C@H]5N)cn3)c2Cl)cn1` [Example 54, N-((4-((5-((3S,4S)-4-amino-3-methyl-2-oxa-8-azaspiro[4.5]decan-8-yl)pyrazin-2-yl)thio)-3-chloropyridin-2-yl)carbamoyl)-6-methoxypyridine-3-sulfonamide]: the pIC50 (in general, the negative decadic logarithm of the IC50, by convention in mol/L) was not below 6.30.
As to `CC1(CN)CCN(c2cnc(Sc3cccc(NC(=O)NS(=O)(=O)c4cccnc4)c3Cl)c(N)n2)CC1` [Example 46, N-((3-((3-amino-5-(4-(aminomethyl)-4-methylpiperidin-1-yl)pyrazin-2-yl)thio)-2-chlorophenyl)carbamoyl)pyridine-3-sulfonamide], the pIC50 was not below 6.30.
Under `C[C@@H]1OCC2(CCN(c3cnc(Sc4cccc(NS(=O)(=O)NC(=O)c5ccccc5)c4Cl)cn3)CC2)[C@@H]1N` [Example 80, N—(N-(3-((5-((3S,4S)-4-amino-3-methyl-2-oxa-8-azaspiro[4.5]decan-8-yl)pyrazin-2-yl)thio)-2-chlorophenyl)sulfamoyl)benzamide] stands not below 6.30.
Under `C[C@@H]1OCC2(CCN(c3cnc(Sc4ccnc(NC(=O)NS(=O)(=O)c5ccccc5)c4Cl)cn3)CC2)[C@@H]1N` [Example 6, N-((4-((5-((3S,4S)-4-amino-3-methyl-2-oxa-8-azaspiro[4.5]decan-8-yl)pyrazin-2-yl)thio)-3-chloropyridin-2-yl)carbamoyl)benzenesulfonamide] stands not below 6.30; under `C[C@@H]1OCC2(CCN(c3cnc(Sc4cccc(NC(=O)NS(=O)(=O)c5cnn(C)c5)c4Cl)cn3)CC2)[C@@H]1N` [Example 79, N-((3-((5-((3S,4S)-4-amino-3-methyl-2-oxa-8-azaspiro[4.5]decan-8-yl)pyrazin-2-yl)thio)-2-chlorophenyl)carbamoyl)-1-methyl-1H-pyrazole-4-sulfonamide], not below 6.30; under `N[C@@H]1c2cnccc2CC12CCN(c1cnc(Sc3cccc(NC(=O)NS(=O)(=O)c4ccccc4)c3Cl)cn1)CC2` [Example 67, (S)—N-((3-((5-(7-amino-5,7-dihydrospiro[cyclopenta[c]pyridine-6,4′-piperidin]-1′-yl)pyrazin-2-yl)thio)-2-chlorophenyl)carbamoyl)benzenesulfonamide], not below 6.30.
Under `C[C@@H]1OCC2(CCN(c3cnc(Sc4ccnc(NC(=O)NS(=O)(=O)c5cnn(C)c5)c4Cl)cn3)CC2)[C@@H]1N` [Example 55, N-((4-((5-((3S,4S)-4-amino-3-methyl-2-oxa-8-azaspiro[4.5]decan-8-yl)pyrazin-2-yl)thio)-3-chloropyridin-2-yl)carbamoyl)-1-methyl-1H-pyrazole-4-sulfonamide] stands not below 6.30; under `C[C@@H]1OCC2(CCN(c3cnc(Sc4ccnc(NC(=O)NS(=O)(=O)C5CC5)c4Cl)cn3)CC2)[C@@H]1N` [Example 57, N-((4-((5-((3S,4S)-4-amino-3-methyl-2-oxa-8-azaspiro[4.5]decan-8-yl)pyrazin-2-yl)thio)-3-chloropyridin-2-yl)carbamoyl)cyclopropanesulfonamide], not below 6.30; under `C[C@@H]1OCC2(CCN(c3cnc(Sc4cccc(NC(=O)NS(=O)(=O)c5ccc(F)cc5)c4Cl)cn3)CC2)[C@@H]1N` [Example 78, N-((3-((5-((3S,4S)-4-amino-3-methyl-2-oxa-8-azaspiro[4.5]decan-8-yl)pyrazin-2-yl)thio)-2-chlorophenyl)carbamoyl)-4-fluorobenzenesulfonamide], not below 6.30.
`C[C@@H]1OCC2(CCN(c3cnc(Sc4cccc(NC(=O)NS(=O)(=O)c5ccccn5)c4Cl)cn3)CC2)[C@@H]1N` [Example 63, N-((3-((5-((3S,4S)-4-amino-3-methyl-2-oxa-8-azaspiro[4.5]decan-8-yl)pyrazin-2-yl)thio)-2-chlorophenyl)carbamoyl)pyridine-2-sulfonamide]: the negative-log IC50 (pIC50) was not below 6.30.
As to `C[C@@H]1OCC2(CCN(c3cnc(Sc4ccnc(NC(=O)NS(=O)(=O)c5cccnc5)c4Cl)cn3)CC2)[C@@H]1N` [Example 51, N-((4-((5-((3S,4S)-4-amino-3-methyl-2-oxa-8-azaspiro[4.5]decan-8-yl)pyrazin-2-yl)thio)-3-chloropyridin-2-yl)carbamoyl)pyridine-3-sulfonamide], the pIC50 was 5.30 to 6.30.
Turning to `C[C@@H]1OCC2(CCN(c3cnc(Sc4ccnc(NC(=O)NS(=O)(=O)c5cccc(F)c5)c4Cl)cn3)CC2)[C@@H]1N` [Example 50, N-((4-((5-((3S,4S)-4-amino-3-methyl-2-oxa-8-azaspiro[4.5]decan-8-yl)pyrazin-2-yl)thio)-3-chloropyridin-2-yl)carbamoyl)-3-fluorobenzenesulfonamide], the pIC50 is not below 6.30.
Consider `CC1(CN)CCN(c2cnc(Sc3ccnc(NC(=O)NS(=O)(=O)c4ccccc4)c3Cl)cn2)CC1` [Example 48, N-((4-((5-(4-(aminomethyl)-4-methylpiperidin-1-yl)pyrazin-2-yl)thio)-3-chloropyridin-2-yl)carbamoyl)benzenesulfonamide], for which the pIC50 is not below 6.30.
With `CC1(CN)CCN(c2cnc(Sc3cccc(NC(=O)NS(=O)(=O)c4ccccc4F)c3Cl)c(N)n2)CC1` [Example 47, N-((3-((3-amino-5-(4-(aminomethyl)-4-methylpiperidin-1-yl)pyrazin-2-yl)thio)-2-chlorophenyl)carbamoyl)-2-fluorobenzenesulfonamide] the figure was 5.30 to 6.30.
For `C[C@@H]1OCC2(CCN(c3cnc(Sc4ccnc(NC(=O)NS(=O)(=O)c5ccccc5)c4F)cn3)CC2)[C@@H]1N` [Example 56, N-((4-((5-((3S,4S)-4-amino-3-methyl-2-oxa-8-azaspiro[4.5]decan-8-yl)pyrazin-2-yl)thio)-3-fluoropyridin-2-yl)carbamoyl)benzenesulfonamide], the pIC50 was not below 6.30.
With `C[C@@H]1OCC2(CCN(c3cnc(Sc4ccnc(NC(=O)NS(=O)(=O)c5ccccc5F)c4Cl)cn3)CC2)[C@@H]1N` [Example 52, N-((4-((5-((3S,4S)-4-amino-3-methyl-2-oxa-8-azaspiro[4.5]decan-8-yl)pyrazin-2-yl)thio)-3-chloropyridin-2-yl)carbamoyl)-2-fluorobenzenesulfonamide] the figure was not below 6.30; with `C[C@@H]1OCC2(CCN(c3cnc(Sc4ccnc(C(=O)NS(=O)(=O)c5ccccc5)c4Cl)cn3)CC2)[C@@H]1N` [Example 71, 4-((5-((3S,4S)-4-amino-3-methyl-2-oxa-8-azaspiro[4.5]decan-8-yl)pyrazin-2-yl)thio)-3-chloro-N-(phenylsulfonyl)picolinamide], 5.30 to 6.30; with `C[C@@H]1OCC2(CCN(c3cnc(Sc4cccc(NC(=O)NS(=O)(=O)c5cccc(F)c5)c4Cl)cn3)CC2)[C@@H]1N` [Example 62, N-((3-((5-((3S,4S)-4-amino-3-methyl-2-oxa-8-azaspiro[4.5]decan-8-yl)pyrazin-2-yl)thio)-2-chlorophenyl)carbamoyl)-3-fluorobenzenesulfonamide], not below 6.30.
Under `C[C@@H]1OCC2(CCN(c3cnc(Sc4cccc(NC(=O)NS(=O)(=O)N5CCCCC5)c4Cl)cn3)CC2)[C@@H]1N` [Example 75, N-((3-((5-((3S,4S)-4-amino-3-methyl-2-oxa-8-azaspiro[4.5]decan-8-yl)pyrazin-2-yl)thio)-2-chlorophenyl)carbamoyl)piperidine-1-sulfonamide] stands not below 6.30.
With `CC1(CN)CCN(c2cnc(Sc3cccc(NC(=O)NS(=O)(=O)c4ccccn4)c3Cl)c(N)n2)CC1` [Example 45, N-((3-((3-amino-5-(4-(aminomethyl)-4-methylpiperidin-1-yl)pyrazin-2-yl)thio)-2-chlorophenyl)carbamoyl)pyridine-2-sulfonamide] the figure was not below 6.30.
For `Cc1nc(N2CCC(C)(CN)CC2)c(CO)nc1Sc1ccnc(NC(=O)NS(=O)(=O)c2ccccc2)c1Cl` [Example 9, N-((4-((5-(4-(aminomethyl)-4-methylpiperidin-1-yl)-6-(hydroxymethyl)-3-methylpyrazin-2-yl)thio)-3-chloropyridin-2-yl)carbamoyl)benzenesulfonamide], the pIC50 is not below 6.30.
For `Cc1nc(N2CCC3(CC2)CO[C@@H](C)[C@H]3N)c(CO)nc1Sc1ccnc(NC(=O)NS(=O)(=O)c2ccccc2)c1Cl` [Example 59, N-((4-((5-((3S,4S)-4-amino-3-methyl-2-oxa-8-azaspiro[4.5]decan-8-yl)-6-(hydroxymethyl)-3-methylpyrazin-2-yl)thio)-3-chloropyridin-2-yl)carbamoyl)benzenesulfonamide], the pIC50 is not below 6.30.
With `C[C@@H]1OCC2(CCN(c3cnc(Sc4cccc(NC(=O)NS(=O)(=O)c5cccnc5)c4Cl)cn3)CC2)[C@@H]1N` [Example 61, N-((3-((5-((3S,4S)-4-amino-3-methyl-2-oxa-8-azaspiro[4.5]decan-8-yl)pyrazin-2-yl)thio)-2-chlorophenyl)carbamoyl)pyridine-3-sulfonamide] the figure was not below 6.30.
`C[C@@H]1OCC2(CCN(c3cnc(Sc4cccc(NS(=O)(=O)NC(=O)Nc5ccccc5)c4Cl)cn3)CC2)[C@@H]1N` [Example 12, ((3S,4S)-8-(5-((2-chloro-3-((N-(phenylcarbamoyl)sulfamoyl)amino)phenyl)thio)pyrazin-2-yl)-3-methyl-2-oxa-8-azaspiro[4.5]decan-4-yl)amine]: the pIC50 was not below 6.30.
